The values that follow come from patent publication US20100324075A1, “THERAPEUTIC USE OF CARBOXYL ESTER LIPASE INHIBITORS” (UNIVERSITY OF CINCINNATI, priority 2007, published 2010).

Molecules are shown by their SMILES.

Experiment [1] deals with T1, CEL (Homo sapiens, UniProt P19835).
T1 construct: The patient takes a daily oral dose of 1 mg per kg body of weight; from tissue; host or cells: whole organism: patient (endogenous enzyme)
T1 sequence (P19835 21-753): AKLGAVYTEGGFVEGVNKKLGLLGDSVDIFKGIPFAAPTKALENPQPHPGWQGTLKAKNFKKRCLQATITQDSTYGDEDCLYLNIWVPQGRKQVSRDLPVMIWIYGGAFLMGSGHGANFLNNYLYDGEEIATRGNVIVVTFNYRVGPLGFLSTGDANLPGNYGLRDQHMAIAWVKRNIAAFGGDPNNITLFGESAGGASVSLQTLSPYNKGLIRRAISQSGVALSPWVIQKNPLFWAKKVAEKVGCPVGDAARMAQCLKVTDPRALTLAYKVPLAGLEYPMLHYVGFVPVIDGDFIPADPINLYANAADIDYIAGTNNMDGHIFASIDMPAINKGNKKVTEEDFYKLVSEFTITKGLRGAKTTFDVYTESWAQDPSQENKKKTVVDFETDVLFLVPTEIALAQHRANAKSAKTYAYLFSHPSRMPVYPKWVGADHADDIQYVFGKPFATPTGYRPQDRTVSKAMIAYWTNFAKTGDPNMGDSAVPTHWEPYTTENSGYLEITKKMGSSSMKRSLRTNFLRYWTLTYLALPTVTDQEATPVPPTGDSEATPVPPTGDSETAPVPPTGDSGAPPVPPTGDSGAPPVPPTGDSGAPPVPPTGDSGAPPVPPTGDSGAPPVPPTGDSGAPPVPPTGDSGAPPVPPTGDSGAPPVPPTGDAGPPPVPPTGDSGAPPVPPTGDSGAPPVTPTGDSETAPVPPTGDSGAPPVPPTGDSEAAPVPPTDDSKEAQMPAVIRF
The experiment can be described thus: Serum HDL, LDL and VLDL cholesterol in a patient with suboptimal HDL given a CEL inhibitor. Format: in vivo. The conditions noted are these: daily oral dose 1 mg per kg, two weeks. Here is the method:
A patient with suboptimal HDL cholesterol level, which is not the result of a known genetic or other predisposing condition, is prescribed (1,5-dimethylhexyl)carbamic acid 4-phenoxyphenyl ester to raise serum HDL levels. The patient takes a daily oral dose of 1 mg per kg body of weight for a period of two weeks, after which serum cholesterol in HDL, LDL, and VLDL is again measured. It is determined that HDL cholesterol has increased by 15-20%, that the ratio of HDL:LDL has increased, and that VLDL is decreased, such that risk for cardiovascular disease is reduced.
A patient with suboptimal HDL cholesterol level, which is not the result of a known genetic or other predisposing condition, is prescribed 4-methyl-1-piperidinecarboxylic acid 4-phenoxyphenyl ester to raise serum HDL levels. The patient takes a daily oral dose of 1 mg per kg body of weight for a period of two weeks, after which serum cholesterol in HDL, LDL, and VLDL is again measured. It is determined that HDL cholesterol has increased by 15-20%, that the ratio of HDL:LDL has increased, and that VLDL is decreased, such that risk for cardiovascular disease is reduced.

Experiment [2] concerns the target T2, CEL (Mus musculus, UniProt Q64285).
T2 construct: from tissue; host or cells: whole animal: wild-type C57BL/6 mice (CEL made by pancreas and liver)
T2 sequence (Q64285 21-599): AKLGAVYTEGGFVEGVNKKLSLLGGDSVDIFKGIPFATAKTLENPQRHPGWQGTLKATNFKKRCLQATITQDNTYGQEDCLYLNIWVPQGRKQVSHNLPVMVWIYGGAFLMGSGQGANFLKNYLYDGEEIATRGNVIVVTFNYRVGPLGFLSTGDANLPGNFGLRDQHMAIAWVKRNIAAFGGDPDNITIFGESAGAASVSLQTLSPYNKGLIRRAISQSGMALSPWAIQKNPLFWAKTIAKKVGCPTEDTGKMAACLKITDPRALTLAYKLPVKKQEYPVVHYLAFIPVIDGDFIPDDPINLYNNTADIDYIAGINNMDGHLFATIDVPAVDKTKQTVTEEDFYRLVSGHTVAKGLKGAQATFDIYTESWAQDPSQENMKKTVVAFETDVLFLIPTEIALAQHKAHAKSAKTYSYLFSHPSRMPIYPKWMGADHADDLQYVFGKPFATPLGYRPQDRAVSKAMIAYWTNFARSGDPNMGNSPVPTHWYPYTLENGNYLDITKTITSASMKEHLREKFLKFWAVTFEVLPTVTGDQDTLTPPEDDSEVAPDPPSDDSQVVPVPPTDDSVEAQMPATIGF
The experiment can be described thus: Daily fecal cholesterol (neutral sterol) excretion in mice fed CEL inhibitor in chow (reverse cholesterol transport). The following applies: C57BL/6 mice. The format is in vivo. Here is the method:
FIG. 8. Excretion of neutral sterol mass is increased by feeding CEL inhibitor (1,5-dimethylhexyl)carbamic acid 4-phenoxyphenyl ester to normal C57BL/6 mice. Inhibitor was mixed with standard rodent chow and fed to mice after baseline excretion was determined. Sterol excretion was again determined after 2 weeks of inhibitor treatment. The change from baseline is plotted for each mouse (n=13).
Animals were individually housed in cages fitted with a wire platform with full access to food and water. After a 1 or 2 day acclimation period, feces were collected for 72 h and sterols were quantitated using a variation of the method described by Post et al. (Post, et al., Increased fecal bile acid excretion in transgenic mice with elevated expression of human phospholipid transfer protein. Arterioscler. Thromb. Vasc. Biol. 23:892-97 (2003)). After being dried and weighed, fecal material was ground to a fine powder. 5α-cholestane (40 μg) and [24-^14C]-taurocholic acid (0.02 μCi) were added to 0.5 g of the ground fecal material as internal standards for extraction efficiency of neutral and acidic sterols, respectively. The fecal material plus standards were suspended in 10 volumes of alkaline methanol (0.2 M NaOH in 80% methanol), incubated at 80° C. for 2 hr, and neutral sterols were separated by 3 extractions with equal volumes of petroleum ether. The combined organic fractions were evaporated under nitrogen, resuspended in hexane, and a portion was used to measure neutral sterols by gas chromatography (Shimadzu Scientific Instruments). Data reported represent the sum of areas under the curves for cholesterol, coprostanol, and lathosterol. The aqueous residue from above was filtered, washed, dried, resuspended in water, and applied to prewashed C18 Bond Elut columns (Varian Inc., Palo Alto, Calif.). Bile acids were eluted from the columns with methanol, concentrated and quantitated by colorimetric assay (Trinity Biotech). To measure fecal sterol esters, ground fecal samples were resuspended in water, extracted with petroleum ether, concentrated, resolved by TLC as above and visualized at 80° C. after staining with 10% phosphomolybdic acid in ethanol, or bands were scraped and quantitated by scintillation spectrometry.
The effect of (1,5-dimethylhexyl)carbamic acid 4-phenoxyphenyl ester on cholesterol disposal has been measured in C57BL/6 mice. Baseline daily fecal cholesterol disposal by chow-fed mice was measured over 3 days using established methods. Thereafter, the same mice were fed a chow diet to which had been added 1 milligram of (1,5-dimethylhexyl)carbamic acid 4-phenoxyphenyl ester per gram of food. The average body weight of the mice was 24 grams. Mice of this size are known to eat between 3.5 and 4 grams of chow per day. Thus, the amount of inhibitor consumed was between 3.5 and 4.0 milligrams per mouse per day or between 146 and 167 milligrams per kilogram of bodyweight. After eating inhibitor-containing diet for 2 weeks, daily fecal cholesterol excretion was again measured over 3 days. […] The average excretion at baseline was 48.9±11.3 micrograms per day per gram bodyweight (range 28.6 to 71.8), which increased to 62.1±10.4 micrograms per day per gram bodyweight (range 45.3 to 89.1) after treatment. The average change per mouse was +33.0% (range −19.3 to +95.4), with 10 of the 13 mice responding positively, 1 showing no change and 2 responding negatively).

As to `CC1CCN(C(=O)Oc2ccc(Oc3ccccc3)cc2)CC1` [4-methyl-1-piperidinecarboxylic acid 4-phenoxyphenyl ester], in experiment [1], the VLDL entry is on record as “decreased”, the “increase in HDL cholesterol” value is 15-20% and the “ratio of HDL:LDL” value was “increased”.
On to `CC(C)CCCC(C)NC(=O)Oc1ccc(Oc2ccccc2)cc1` (centres unmarked) [(1,5-dimethylhexyl)carbamic acid 4-phenoxyphenyl ester], for which the “average change per mouse in cholesterol excretion from baseline” value in experiment [2] (1 mg/g chow, 2 weeks, n=13, range −19.3 to +95.4) was “+33.0%”. For the same molecule, the “mice responding positively (increased cholesterol excretion)” value in experiment [2] (1 mg/g chow, 2 weeks, 1 no change, 2 negative) is reported as 10 of the 13. In addition, in experiment [2] (1 mg/g chow, 2 weeks, P=0.01), the “cholesterol excretion, paired data analysis vs baseline” value is on record as “significantly increased”. Also, in experiment [2] (1 mg/g chow, 2 weeks, positive responders only), the “average increase in cholesterol excretion over baseline, of those that responded positively” value stood at 46.7%. Further, in experiment [2] (1 milligram inhibitor per gram chow for 2 weeks, n=13, baseline 48.9±11.3), the “average fecal cholesterol excretion after treatment” value is listed as 62.1±10.4 micrograms per day per gram bodyweight. Also, in experiment [1], the VLDL result is on record as “decreased”, the “increase in HDL cholesterol” value was 15-20% and the “ratio of HDL:LDL” value is “increased”.
